Article PMC2009935, “Biological activities of dihydrodiols derived from two polycyclic hydrocarbons in rodent test systems” (British Journal of Cancer, 1979)

How the values were obtained:
mouse skin [1] = system: mouse skin
Wistar rats = assay: Induction of sarcomas after s.c. injection into Wistar rats
mouse skin [2] = assay: Short-term test on mouse skin: suppression of sebaceous glands
mouse skin [3] = details: total doses 75-150 ug in 3 applications
[4] = single dose 25 ug, TPA promotion
[5] = female Wistar rats, single s.c. injection 0.9 mg in olive oil, up to 9 months

## Cc1c2ccccc2cc2c3c(ccc12)C=C[C@@H](O)[C@@H]3O (relative stereo) [1,2-dihydrodiol, trans-1,2-Dihydro-1,2-dihydroxy-7-methylbenz[a]anthracene]
Mouse skin [1]; [4]
  tumour development in the initiated mice (in words): only really increased after the amount of TPA applied had been doubled

## Cc1c2c(cc3c1ccc1ccccc13)C=C[C@@H](O)[C@@H]2O (relative stereo) [8,9-dihydrodiol, trans-8,9-dihydro-8,9-dihydroxy-7-methylbenz[a]anthracene]
Mouse skin [1]; [4]
  tumour development in the initiated mice (in words): only really increased after the amount of TPA applied had been doubled

## Cc1c2ccccc2cc2c1ccc1ccccc12 [7-methylbenz[a]anthracene, reference compound]
Mouse skin [1]; female CDI mice, single dose 25 ug in acetone on dorsal skin, TPA thrice weekly for 52 weeks
  tumour-initiating activity on mouse skin (in words): more active than the related 1,2-, 5,6- and 8,9-dihydrodiols
Mouse skin [1]; [4]
  skin-tumour incidence plateau, first or only, time after initiation: > 40 weeks

## O[C@H]1C=Cc2c(cc3ccc4cccc5ccc2c3c45)[C@@H]1O (relative stereo) [trans-7,8-Dihydro-7,8-dihydroxy-BP, trans-7,8-Dihydro-7,8-dihydroxybenzo[a]pyrene]
Wistar rats; [5]
  sarcomas induced in the group of rats: one
Wistar rats; single s.c. injection 0.9 mg in olive oil
  activity as s.c. carcinogen in rats (in words): very much less active than benzo[a]pyrene as an s.c. carcinogen in rats
Mouse skin [2]; total doses 75-150 ug in 3 applications
  suppression of sebaceous glands in mouse skin (in words): some activity
Mouse skin [3]
  induction of hyperplasia in mouse skin (in words): some activity as a hyperplastic agent

## c1ccc2c(c1)cc1ccc3cccc4ccc2c1c34 [BP, benzo[a]pyrene, reference compound]
Wistar rats; Table III, female Wistar rats, single s.c. injection 0.9 mg in 0.5 ml olive oil, up to 9 months, 30 animals
  No. with sarcomas: 24
Wistar rats; [5]
  sarcomas induced in the group of rats: 24/30
Mouse skin [2]; total dose 150.0 ug in 3 applications in acetone, 8 days after first treatment, 12 microscopic fields
  Sebaceous glands, No. present: 0.0
